Experimental data published in PubChem BioAssay AID1259407 (Chemical Carcinogenesis Research Information System (CCRIS), 2018).
Calls of active or inactive are those of the source. The rule behind the calls is not given here. Where a SMILES comes first, the peptide text is derived from it. [ ]: non-standard residue; d: D form. ξ: configuration not given here. Trp(1-OMe) = COn1cc(C[C@H](N)C(=O)O)c2ccccc21; Asu = N[C@@H](CCCCCC(=O)O)C(=O)O; Ile(3ξ) = CCC(C)[C@H](N)C(=O)O; dPip = O=C(O)[C@H]1CCCCN1

Tested on: CCRIS mutagenicity, Ames/micronucleus/aberration tests
Assay: CCRIS mutagenicity studies
[1] = Test System: AMES SALMONELLA TYPHIMURIUM, Strain/Indicator: TA98, Metabolic Activation: NONE, Method: PREINCUBATION
[2] = Test System: AMES SALMONELLA TYPHIMURIUM, Strain/Indicator: TA100, Metabolic Activation: NONE, Method: PREINCUBATION

Structure (SMILES)	mutagenic call [1]	mutagenic call (Test System: AMES SALMONELLA TYPHIMURIUM, Strain/Indicator: TA100, Metabolic Activation: HAMSTER, LIVER, S-9, AROCLOR 1254 (30%), Method: PREINCUBATION)	mutagenic call [2]	mutagenic call (Test System: AMES SALMONELLA TYPHIMURIUM, Strain/Indicator: TA100, Metabolic Activation: RAT, LIVER, S-9, AROCLOR 1254 (30%), Method: PREINCUBATION)	mutagenic call (End Point: IN VITRO CHROMOSOMAL ABERRATIONS, Test System: CHO CELLS, Metabolic Activation: NONE)	mutagenic call (End Point: IN VITRO CHROMOSOMAL ABERRATIONS, Test System: CHO CELLS, Metabolic Activation: RAT, LIVER, S-9, AROCLOR 1254)	mutagenic call (End Point: IN VIVO MICRONUCLEUS, Test System: BONE MARROW POLYCHROMATIC ERYTHROCYTES, Species: MOUSE, Strain/Sex: ICR/MALE, Route: IP INJECTION)	mutagenic call (Test System: AMES SALMONELLA TYPHIMURIUM, Strain/Indicator: TA98, Metabolic Activation: RAT, LIVER, S-9, AROCLOR 1254, Method: PREINCUBATION)	mutagenic call (Test System: AMES SALMONELLA TYPHIMURIUM, Strain/Indicator: TA100, Metabolic Activation: RAT, LIVER, S-9, AROCLOR 1254, Method: PREINCUBATION)	mutagenic call (Test System: AMES SALMONELLA TYPHIMURIUM, Strain/Indicator: TA102, Metabolic Activation: NONE, Method: PREINCUBATION)	mutagenic call (Test System: AMES SALMONELLA TYPHIMURIUM, Strain/Indicator: TA102, Metabolic Activation: RAT, LIVER, S-9, AROCLOR 1254, Method: PREINCUBATION)	mutagenic call (Test System: AMES SALMONELLA TYPHIMURIUM, Strain/Indicator: TA1535, Metabolic Activation: NONE, Method: PREINCUBATION)	mutagenic call (Test System: AMES SALMONELLA TYPHIMURIUM, Strain/Indicator: TA1535, Metabolic Activation: RAT, LIVER, S-9, AROCLOR 1254, Method: PREINCUBATION)	mutagenic call (Test System: AMES SALMONELLA TYPHIMURIUM, Strain/Indicator: TA1537, Metabolic Activation: NONE, Method: PREINCUBATION)	mutagenic call (Test System: AMES SALMONELLA TYPHIMURIUM, Strain/Indicator: TA1537, Metabolic Activation: RAT, LIVER, S-9, AROCLOR 1254, Method: PREINCUBATION)
CCCCc1ccc(N=Cc2ccc(OC)cc2)cc1	inactive; negative	active; positive	inactive; negative	inactive; negative											
CCC(C)[C@@H]1NC(=O)[C@H](Cc2cn(OC)c3ccccc23)NC(=O)[C@H](CCCCCC(=O)OC)NC(=O)[C@H]2CCCCN2C1=O (some centres not stated) (cyclo([Asu](OMe)[Trp(1-OMe)][Ile(3ξ)][dPip]))	inactive; negative		inactive; negative		active; positive (structural changes)	active; positive (structural changes)	active; positive	inactive; negative	inactive; negative	inactive; negative	inactive; negative	inactive; negative	inactive; negative	inactive; negative	inactive; negative
